Laboratory results as given in PMC4317013 (The Journal of Biological Chemistry, 2014).

Legend:
Jurkat T cells = test: Internalization of FITC-labeled peptides by Jurkat T cells, FACS; settings: 5 μM, 1 h, 37 °C, full medium with 10% FBS, washed, fixed with 4% paraformaldehyde, FACSCalibur, compared with untreated cells, Fig. 5A
Experimental: For the internalization experiment, cells were seeded at 1 × 10^6 cells/ml with 8 ml of full medium into 75-cm^2 flasks and treated with respective 200 nM proteins for 2 h or 5 μM peptides for 1 h.
Human A+-helix peptide ([…]; corresponding to the cleaved N-terminal peptide of hPCI), mouse A+-helix peptide ([…]; corresponding to the cleaved N-terminal peptide of mPCI), and TAT peptide ([…]) ([42]) were synthesized and labeled with FITC (GenScript, Piscataway, NJ). […] Fluorescence-activated cell sorting (FACS) analysis was performed with a FACSCalibur flow cytometer (BD Biosciences). Further data analysis was done with Flowing Software ([43]). For confocal microscopy, the fixed cells were suspended with Vectashield mounting medium containing […] DAPI (Vector Laboratories, Burlingame, CA) and transferred onto slides. Confocal images were taken by a Zeiss LSM-510 Meta confocal microscope system (Zeiss, Jena, Germany). Zeiss LSM Image Browser software was applied for further analysis of images.

testisin = test: 30 nM testisin in testisin buffer (50 mM Tris, 150 mM NaCl, 10 mM CaCl2, pH 7.5); settings: 37 °C, up to 120 min
enteropeptidase = test: 30 nM enteropeptidase; settings: 37 °C, up to 120 min
[1] = media from untreated U937 cells (RMPI 1640 medium); settings: 37 °C, up to 4 h
urokinase = test: 30 nM urokinase; settings: 37 °C, up to 120 min

cleaved bond (testisin)	Substance	cellular fluorescence signal (FACS) (Jurkat T cells)	not cleaved (enteropeptidase)	not cleaved [1]	not cleaved (urokinase)
	Fluorescein Isothiocyanate [free FITC]	small shift			
Ala18-Val19	RRHSHSKKKKAKESSVGAVGPPSSKDFA...		still recognized by anti-penta-His IgG after 2-h incubation	did not affect the molecular weight of mPCI upon incubation for 1 and 4 h	still recognized by anti-penta-His IgG after 2-h incubation
